{"source": "patent US20240217952A1", "about": "“TREATMENT OF GRAFT-VERSUS-HOST DISEASE WITH INHIBITORS OF BET FAMILY BDII BROMODOMAIN” (POSEIDON INNOVATION 1, INC., priority 2022, published 2024)", "key": {"[1]": {"system": "acute GVHD", "details": "oral gavage three times weekly, versus vehicle; FIG. 4; cited from earlier work"}, "[2]": {"system": "imiquimod-induced psoriasis", "assay": "IMQ induced psoriasis mouse model", "type": "in vivo", "method": "Except for the control group, all other groups received a daily topical dose of 60 mg of 5% commercially available IMQ cream on the shaved back for 7 consecutive days. The same amount of Vaseline was applied to the same areas of the animals in the negative control group.\nVehicle and DF-6129 were dosed daily (po) for 8 days, from Day −1 to Day 7. Dosing time: 1 hour prior to IMQ application.\nThe Psoriasis Area and Severity Index (PASI) scoring system was used to evaluate the severity of skin inflammation of the mouse model. Erythema, scaling, and skin thickness was scored independently from 0-4 as (daily scoring) as below:\nAnimals were euthanized 4 h post last dosing on day 7 (3 h after applying with imiquimod cream). Whole Blood was collected via cardiac puncture from all group animals. Serum samples were separated by centrifugation at 4° C. at 8000 g for 5 minutes, total 70 samples. All serum samples were stored at −80° C. for IL-17 analysis.\nAnimals were euthanized 4 h post last dosing on day 7 (3 h after applying with imiquimod cream) and back skin was be collected. The skin tissues were divided into two parts. One half was flash frozen and stored at −80° C. for PCR analysis (IL-17A, IL-17F, IL-22 and IL-23), the other half was fixed in 10% formalin for HE staining and scoring.\nAll statistical analysis were conducted, and the level of significance was set at P<0.05. The group means and standard deviation were calculated for all measurement parameters as study designed. One-way ANOVA comparisons among the groups was performed with software SPSS 16.0."}, "[3]": {"system": "IL-17A, IL-17F and IL-21 T-cell dependent cytokine secretion", "assay": "Th17 Panel in Human PBMCs (anti-CD3 stimulation, Luminex)", "type": "cell-based", "details": "anti-CD3 coated plates, 48 hours post stimulation, supernatant, FIG. 1", "method": "High binding plates were coated with anti-CD3 (Clone UCHT-1, 0.2 ug/well) or its isotype control mIgG1 (0.2 ug/well) and incubated overnight at 4° C. Cryopreserved human PBMCs were seeded into U-bottom 96-well plates (2.4×10^5 cells/well) with 228 ul per well of culture medium (RPMI 1640, 10% HI-FBS, 1% P/S, 2 mM L-glutamine). Cells were incubated at 37° C., 5% CO2 for 1 hour prior to the addition of test compounds. Test compounds were solubilized in DMSO and further diluted to 20× with cell culture medium. Test compounds were added to the PBMCs in volumes of 12 ul in triplicate and incubated at 1 hour at 37° C., 5% CO2.\nAfter the 1 hour incubation, 200 ul of cells ([…]) treated with test compounds or controls were transferred to the prepared anti-CD3 coated plates and incubated at 48 hours at 37° C., 5% CO2. Consequently, the final concentrations of assay controls were 1 ug/mL anti-CD3 (agonist) or 1 ug/mL mIgG1 isotype control, and 0.1% DMSO (vehicle control). At the end of the incubation period, plates were centrifuged at 200×g for 10 minutes. Cell culture supernatants were collected and stored at −80° C. until needed for analysis. Cytokine levels in each sample were determine using Luminex methodology per the manufacturer's protocol using the Human Th17 Magnetic Bead Panel from Milipore Sigma (HTH17MAG-14K).\nHuman PBMCs were treated with compound I-1 (Example 1) or vehicle control and then subjected to T cell activation mediated by anti-CD3 coated plates. 48 hours-post stimulation, IL-17A, IL-17F and IL-21 supernatant levels were quantified."}, "[4]": {"system": "MCP-1 secretion from LPS-stimulated human PBMCs", "assay": "PBMC MCP-1 HTRF Assay", "type": "cell-based", "details": "FIG. 2", "method": "The cryopreserved PBMC cells were thawed in a 37° C. water bath immediately after taking out from liquid nitrogen storage. A sterile pipette was used to transfer the content to sterile […] centrifuge tube containing […] of complete growth medium (Gibico 1640) and centrifuge at 300×g for 10 min. Supernatant was discarded, and cell pellet was resuspended in 10 mL of complete growth media in a sterile 15 mL tube. The cells were rested for 1 h at 37° C. (1×10^6 cells/mL). The cells were spinned down at 300×g for 10 minutes after 1 h. Supernatant was discard, and cell pellet was resuspended in complete growth medium, the cells number and viability were measured by AO/PI staining. In a 384-well white plate, PBMCs at 25k cells/well (15 μl per well) were seeded with Gibico 1640 medium. The compound stock was serial diluted into 10 mM concentrations by 3-fold dilution. […]\nFor MCP-1 HTRF, 2.5 μl/well MCP-1 donor antibody and […] MCP-1 acceptor antibody were added into 384 well plate, following by centrifuging at 190×g for 1 min and incubating at room temperature for 2 h. The plate was read on the Envision.\nThe cryopreserved PBMC cells were thawed in a 37° C. water bath immediately after taking out from liquid nitrogen storage. […] Supernatant was discard, and cell pellet was resuspended in complete growth medium, the cells number and viability were measured by AO/PI staining. […]"}, "[5]": {"system": "Graft vs. Host Disease (GvHD)", "assay": "GvHD, combination with adoptive transfer of expanded Tregs", "type": "in vivo, mouse", "details": "in combination with adoptive transfer of expanded Tregs; e.g. 3 mg/kg", "text": "It has been shown that BET inhibitors can be combined with Treg expansion therapy for treatment of diseases involving inflammatory response. Lethally irradiated (8.5 Gy) BALB/c mice received 5.5×10^6 TCD B6-CD45.1 BM cells and spleen cells from expanded (TrED) or unexpanded (TrUD) B6-FoxP3RFP donor mice adjusted to contain either […] or 1×10^6 total T cells (Copsel et al. 2019)."}, "[6]": {"system": "Graft vs. Host Disease (GvHD)", "assay": "GvHD, combination with CTLA4-Ig/Abatacept", "type": "in vivo, mouse", "details": "in combination with CTLA4-Ig; e.g. 3 mg/kg", "text": "It has been shown that in vivo infusion of recombinant, soluble CTLA4 fused with Ig heavy chains, as a surrogate ligand used to block CD28/CTLA4 T-cell costimulation, could prevent efficient T-cell activation and thereby reduce graft-versus-host disease (GVHD). Lethally irradiated B10.BR recipients of major histocompatibility complex disparate C57BL/6 donor grafts received intraperitoneal injections CTLA4-Ig in various doses and schedules beginning on day −1 or day 0 of bone marrow transplantation (BMT) (see Blazer et al. 1994)."}, "[7]": {"system": "cGVHD", "assay": "cGVHD models (LP/J→C57BL/6 sclerodermatous; C57BL/6→B10.BR)", "type": "in vivo, mouse", "details": "e.g. 3 mg/kg", "method": "Compound I-2 is dosed at various doses, e.g., 3 mg/kg, and decreases incidence and/or […] onset of Graft vs. Host Disease (GvHD) in the LP/J-C57BL/6 model of sclerodermatous cGVHD and/or the C57BL/6→B10.BR cGVHD model that develops multiorgan system disease including bronchiolar obliterans (BO)."}, "[8]": {"system": "Graft vs. Host Disease (GvHD)", "assay": "GvHD in irradiated female BALB/c mice engrafted with WBCs from female C57BL/6 mice", "type": "in vivo, mouse"}, "[9]": {"system": "GVHD", "details": "allogeneic animals compared with allogeneic control recipients; FIG. 3; cited from earlier work"}}}
{"smiles": "Cc1noc(C)c1-c1cnc2c(-c3ccc(C(=O)O)cc3)cn([C@@H](C)c3ccccn3)c2c1", "note": "[PLX51107]", "values": [{"measurement": "survival", "setting": "[1]", "value": "significantly improved"}]}
{"smiles": "Cn1ccn(-c2ccc(-c3cc(F)cc(-c4cccc(N5CCN(C(C)(C)C)CC5)c4)c3O)cc2Cl)c1=O", "note": "[Compound I-1, 1-(3″-(4-(tert-butyl)piperazin-1-yl)-3-chloro-5′-fluoro-2′-hydroxy-[1,1′:3′,1″- terphenyl]-4-yl)-3-methyl-1,3-dihydro-2H-imidazol-2-one]", "values": [{"measurement": "mRNA levels of IL-17A from the back skin", "setting": "[2]; 10 mg/kg, compared with vehicle treatment alone, FIG. 7A", "value": "significantly reduced"}, {"measurement": "mRNA levels of IL-22 from the back skin", "setting": "[2]; 10 mg/kg, compared with vehicle treatment alone, FIG. 7B", "value": "significantly reduced"}, {"measurement": "mRNA levels of IL-23 from the back skin", "setting": "[2]; 10 mg/kg, compared with vehicle treatment alone, FIG. 7C", "value": "significantly reduced"}, {"measurement": "serum IL-17 levels", "setting": "[2]; compared to vehicle treatment alone, ELISA, day 7, FIG. 6", "value": "significantly reduced"}, {"measurement": "total psoriasis (PASI) score", "setting": "[2]; daily dosing po, compared to vehicle treatment, FIG. 5A", "value": "significantly reduced"}, {"measurement": "erythema (PASI)", "setting": "[2]; daily dosing po, compared to vehicle treatment, FIG. 5B", "value": "significant decreases"}, {"measurement": "scaling (PASI)", "setting": "[2]; daily dosing po, compared to vehicle treatment, FIG. 5C", "value": "significant decreases"}, {"measurement": "skin thickening (PASI)", "setting": "[2]; daily dosing po, compared to vehicle treatment, FIG. 5D", "value": "significant decreases"}, {"measurement": "IL21 T-cell dependent cytokine secretion", "setting": "[3]", "value": "inhibited"}, {"measurement": "IL-17A T-cell dependent cytokine secretion", "setting": "[3]", "value": "inhibited"}, {"measurement": "IL-17F T-cell dependent cytokine secretion", "setting": "[3]", "value": "inhibited"}, {"measurement": "MCP secretion from LPS-stimulated human PBMCs", "setting": "[4]", "value": "inhibited"}]}
{"smiles": "Cc1cc(-c2ccc(-n3ccn(C)c3=O)c(Cl)c2)c(O)c(-c2cccc(N3CCN(C(C)(C)C)CC3)c2)n1", "note": "[Compound I-2, 1-(4-(2-(3-(4-(tert-butyl)piperazin-1-yl)phenyl)-3-hydroxy-6-methylpyridin-4-yl)-2-chlorophenyl)-3-methyl-1,3-dihydro-2H-imidazol-2-one]", "values": [{"measurement": "incidence and/or onset of GvHD", "setting": "[5]", "value": "decreases incidence and/or delays of onset"}, {"measurement": "incidence and/or onset of GvHD", "setting": "[6]", "value": "decreases incidence and/or delays onset"}, {"measurement": "incidence and/or onset of GvHD (cGVHD)", "setting": "[7]; in combination with Ruxolitinib", "value": "decreases incidence and/or delays onset"}, {"measurement": "incidence and/or onset of GvHD (cGVHD)", "setting": "[7]; monotherapy", "value": "decreases incidence and/or delayes onset"}, {"measurement": "incidence and/or onset of GvHD", "setting": "[8]; in combination with Ruxolitinib, compared to Ruxolitinib treatment alone, e.g. 3 mg/kg", "value": "decreases incidence and/or delays of onset"}, {"measurement": "incidence and/or onset of GvHD", "setting": "[8]; monotherapy, various doses e.g. 3 mg/kg", "value": "decreases incidence and/or delays onset"}]}
{"smiles": "COc1cc2c(cc1-c1c(C)noc1C)ncc1[nH]c(=O)n([C@H](C)c3ccccn3)c12", "note": "[I-BET151]", "values": [{"measurement": "GVHD severity (clinical score)", "setting": "[9]", "value": "significantly reduced"}, {"measurement": "survival rates", "setting": "[9]", "value": "improved"}]}
